In ChEMBL document CHEMBL1130027, “Improved P1/P1' substituents for cyclic urea based HIV-1 protease inhibitors: synthesis, structure-activity relationship, and X-ray crystal structure analysis” (J Med Chem, 1997):

Tests used:
[1] = test system: MT2; assay: Cellular antiviral activity (IC90) assessed on human MT-2 cells infected with HIV-RF; format: functional
[2] = target: Human immunodeficiency virus type 1 protease (Human immunodeficiency virus 1, UniProt Q72874); assay: Compound was tested for binding affinity against HIV-1 Protease
[3] = In vivo evaluation of maximum plasma concentration at a dose of 10 mg/kg; format: ADME, organism-based; parameters: dose 10 mg/kg
[4] = Oral bioavailability in dog; format: ADME, organism-based, Canis lupus familiaris; details: in vivo
[5] = The half life in dog; format: ADME, organism-based, Canis lupus familiaris; details: in vivo

Row | Compound | IC90 [1] [nM] | Ki [2] [nM] | Cmax [3] [ng/mL] | bioavailability [4] [%] | half-life [5] [min]
1 | O=C1N(Cc2ccccc2)[C@H](Cc2ccc3ccccc3c2)[C@H](O)[C@@H](O)[C@@H](Cc2ccc3ccccc3c2)N1Cc1ccccc1 | 3200 | – | – | – | –
2 | CC(=O)c1cccc(CN2C(=O)N(Cc3cccc(C(C)=O)c3)[C@H](Cc3ccc4c(c3)N(C)CCO4)[C@H](O)[C@@H](O)[C@H]2Cc2ccc3c(c2)N(C)CCO3)c1 | 16.4 | 0.08 | – | – | –
3 | O=C1N(Cc2ccc3ccccc3c2)[C@H](Cc2ccc3c(c2)OCCO3)[C@H](O)[C@@H](O)[C@@H](Cc2ccc3c(c2)OCCO3)N1Cc1ccc2ccccc2c1 | 98 | 0.04 | – | – | –
4 | CNc1cccc(CN2C(=O)N(Cc3cccc(NC)c3)[C@H](Cc3ccc4c(c3)OCCO4)[C@H](O)[C@@H](O)[C@H]2Cc2ccc3c(c2)OCCO3)c1 | 8.7 | 0.14 | 220 | 4.6 | 48
5 | O=C1N(Cc2ccc(CO)cc2)[C@H](Cc2ccc3c(c2)OCCO3)[C@H](O)[C@@H](O)[C@@H](Cc2ccc3c(c2)OCCO3)N1Cc1ccc(CO)cc1 | 83 | 0.05 | – | – | –
6 | CNc1cccc(CN2C(=O)N(Cc3cccc(NC)c3)[C@H](Cc3ccc4c(c3)CCO4)[C@H](O)[C@@H](O)[C@H]2Cc2ccc3c(c2)CCO3)c1 | 61.6 | 0.2 | – | – | –
7 | COc1cc(C[C@@H]2[C@H](O)[C@@H](O)[C@@H](Cc3cc(OC)cc(OC)c3)N(Cc3ccccc3)C(=O)N2Cc2ccccc2)cc(OC)c1 | > 5000 | 8 | – | – | –
8 | COc1ccc(C[C@@H]2[C@H](O)[C@@H](O)[C@@H](Cc3ccc(OC)c(OC)c3)N(Cc3ccccc3)C(=O)N2Cc2ccccc2)cc1OC | 640 | 6.4 | – | – | –
9 | Nc1cccc(CN2C(=O)N(Cc3cccc(N)c3)[C@H](Cc3ccc4c(c3)OCCO4)[C@H](O)[C@@H](O)[C@H]2Cc2ccc3c(c2)OCCO3)c1 | 40 | 0.04 | – | – | –
10 | O=C1N(Cc2ccc(O)cc2)[C@H](Cc2ccc3c(c2)OCCO3)[C@H](O)[C@@H](O)[C@@H](Cc2ccc3c(c2)OCCO3)N1Cc1ccc(O)cc1 | 107 | 0.03 | – | – | –
11 | O=C1N(Cc2ccccc2)[C@H](Cc2ccccc2)[C@H](O)[C@@H](O)[C@@H](Cc2ccccc2)N1Cc1ccccc1 | 790 | – | – | – | –
12 | CC(=O)c1cccc(CN2C(=O)N(Cc3cccc(C(C)=O)c3)[C@H](Cc3ccc4c(c3)OCCO4)[C@H](O)[C@@H](O)[C@H]2Cc2ccc3c(c2)OCCO3)c1 | 4.2 | 0.04 | – | – | –
13 | CC(=O)c1cc(CN2C(=O)N(Cc3ccc(F)c(C(C)=O)c3)[C@H](Cc3ccc4c(c3)OCO4)[C@H](O)[C@@H](O)[C@H]2Cc2ccc3c(c2)OCO3)ccc1F | 265 | 1.5 | – | – | –
14 | CC(=O)c1cccc(CN2C(=O)N(Cc3cccc(C(C)=O)c3)[C@H](Cc3ccc4c(c3)CCO4)[C@H](O)[C@@H](O)[C@H]2Cc2ccc3c(c2)CCO3)c1 | 10 | 0.048 | – | – | –
15 | CN1CCOc2ccc(C[C@@H]3[C@H](O)[C@@H](O)[C@@H](Cc4ccc5c(c4)N(C)CCO5)N(Cc4ccccc4)C(=O)N3Cc3ccccc3)cc21 | 218 | 0.7 | – | – | –
16 | CC(=O)c1cccc(CN2C(=O)N(Cc3cccc(C(C)=O)c3)[C@H](Cc3ccc4c(c3)OCO4)[C@H](O)[C@@H](O)[C@H]2Cc2ccc3c(c2)OCO3)c1 | 14.7 | 0.043 | – | – | –
17 | CC(=O)c1cc(CN2C(=O)N(Cc3ccc(F)c(C(C)=O)c3)[C@H](Cc3ccc4c(c3)OCCO4)[C@H](O)[C@@H](O)[C@H]2Cc2ccc3c(c2)OCCO3)ccc1F | 84 | 0.64 | – | – | –
18 | COc1cc(C[C@@H]2[C@H](O)[C@@H](O)[C@@H](Cc3cc(OC)cc(OC)c3)N(Cc3cccc(C(C)=O)c3)C(=O)N2Cc2cccc(C(C)=O)c2)cc(OC)c1 | 46.4 | 0.4 | – | – | –
19 | CNc1cccc(CN2C(=O)N(Cc3cccc(N)c3)[C@H](Cc3ccc4c(c3)OCCO4)[C@H](O)[C@@H](O)[C@H]2Cc2ccc3c(c2)OCCO3)c1 | 27 | 0.11 | – | – | –
20 | O=C1N(Cc2ccccc2)[C@H](Cc2ccc3c(c2)CCO3)[C@H](O)[C@@H](O)[C@@H](Cc2ccc3c(c2)CCO3)N1Cc1ccccc1 | 305 | – | – | – | –
21 | O=C1N(CC2CC2)[C@H](Cc2ccc3c(c2)OCCO3)[C@H](O)[C@@H](O)[C@@H](Cc2ccc3c(c2)OCCO3)N1CC1CC1 | 928 | 0.27 | – | – | –
22 | O=C1N(Cc2ccccc2)[C@H](Cc2ccc3c(c2)OCCO3)[C@H](O)[C@@H](O)[C@@H](Cc2ccc3c(c2)OCCO3)N1Cc1ccccc1 | 112 | 0.44 | – | – | –
23 | O=C1N(Cc2ccccc2)[C@H](Cc2ccc3c(c2)OCO3)[C@H](O)[C@@H](O)[C@@H](Cc2ccc3c(c2)OCO3)N1Cc1ccccc1 | 504 | 1 | – | – | –
24 | Nc1cccc(CN2C(=O)N(Cc3cccc(N)c3)[C@H](Cc3ccc4c(c3)CCO4)[C@H](O)[C@@H](O)[C@H]2Cc2ccc3c(c2)CCO3)c1 | 30.6 | 0.11 | – | – | –
